Experimental data as given in PMC6630517 (Molecules, 2019).
Read-outs that look alike come from different tables or passages of the source.

Assays:
[1] = test system: chloroquine-sensitive (CQS) NF54 strain of Plasmodium falciparum; assay: In vitro antiplasmodial assay (parasite lactate dehydrogenase), NF54 strain; format: cell-based; conditions: for activity in the sensitive strain (in words): NF54 strain
Method: (§1) Continuous in vitro cultures of asexual erythrocyte stages of P. falciparum were maintained using a modified method by Trager and Jensen. Quantitative assessment of the antiplasmodial activity in vitro was determined via the parasite lactate dehydrogenase assay using a modified method described by Makler. […] Samples were tested as a suspension if not completely dissolved. Stock solutions were stored at −20 °C. Further dilutions were prepared on the day of the experiment. […] The vitamin B12 complexes were tested at starting concentrations up to 50 μg/ mL, which was then serially diluted 2-fold in complete medium to give 10 concentrations. The ligands were tested at a starting concentration of 10 μg/mL, which was serially diluted 2-fold in complete medium to give 10 concentrations. […] The IC50 values were obtained using a non-linear dose-response curve fitting analysis via Graph Pad Prism v.5.0 software (GraphPad Software Inc., San Diego, CA, USA).

[2] = test system: chloroquine-resistant (CQR) K1 strain of Plasmodium falciparum; assay: In vitro antiplasmodial assay (parasite lactate dehydrogenase), K1 strain; format: cell-based; conditions: for Resistance Index (RI): RI = IC50 (CQR)/IC50 (CQS); for activity against the CQR K1 strain relative to CQS (in words): resistance indices very close to unity
Method: as §1

[3] = test system: human lung fibroblasts (MRC5) cell line; assay: In vitro cytotoxicity, MTT assay, MRC5; format: cell-based; conditions: 48 h, 5 to 200 μM, read-out: IC50 against MRC5
Method: (§2) B12-JR1 was screened for in vitro cytotoxicity against the Chinese Hamster Ovarian (CHO) cell-line using the 3-(4,5-dimethylthiazol-2-yl)-2,5-diphenyltetrazolium bromide (MTT)-assay. The test sample was prepared to a 20 mg mL^−1 stock solution in 100% DMSO and tested in triplicate. Stock solutions were stored at −20 °C. Further dilutions were prepared in complete medium on the day of the experiment. Samples were tested as a suspension if not completely dissolved. Emetine was used as the reference drug in all experiments. The initial concentration of emetine was 100 µg mL^−1, which was diluted in complete medium with 10-fold dilutions to give 6 concentrations, the lowest being 0.001 µg mL^−1. The same dilution technique was applied to all test samples. The highest concentration of solvent to which the cells were exposed to have no measurable effect on the cell viability. […] Furthermore, the cytotoxicity in terms of the antiproliferative effect of B12-JR1, B12-JR2 and B12-JR3 were similarly evaluated by the MTT assay. The assay was carried out using human lung fibroblasts (MRC5) cell line after 48 h of cell incubation in the medium, containing compounds at concentrations ranging from 5 to 200 μM. […] The results were expressed as mean values ± standard deviation (SD) and analysed using Student’s t-test at a threshold level of p = 0.05. […]

[4] = test system: Chinese Hamster Ovarian (CHO) cell-line; format: cell-based
Method: as §2

[5] = test system: zebrafish (Danio rerio) embryos; assay: Zebrafish embryo toxicity (lethal, developmental, cardiotoxicity); conditions: 6 to 120 hpf; for toxicity in zebrafish embryos (survival/teratogenicity, in words): doses up to 150 µM
Method: The toxicity evaluation of B12-JR1, B12-JR1-CBC and vitamin B12 in the zebrafish model was carried out according to general rules of the OECD Guidelines for the Testing of Chemicals. […] Embryos of wild type zebrafish (Danio rerio, AB strain) were raised in a temperature- and light-controlled zebrafish facility with 28 °C and standard 14:10-h light-dark photoperiod, and regularly fed with commercially dry flake food (TetraMin™ flakes; Tetra Melle, Germany) twice a day and Artemia nauplii once daily. Zebrafish embryos were produced by the pair-wise mating, collected and distributed into 24-well plates containing 10 embryos per well and 1 mL embryos water (0.2 g L^−1 of Instant Ocean® Salt in distilled water), and raised at 28 °C. […] Experiments were performed three times using 30 embryos per concentration. Apical endpoints for the toxicity evaluation (Table S1) were recorded at 24, 48, 72, 96 and 120 hpf using an inverted microscope (CKX41; Olympus, Tokyo, Japan). […] Experiments were performed three times using 5 embryos per concentration. The hepatotoxicity was determined according to the change of liver area index compared to the control group, calculated as the ration between liver area and embryonic lateral area x 100%, as reported by Zhang et al.. In addition, the liver colour and retention of yolk were followed as the phenotypic signs of hepatotoxicity.

[6] = test system: liver of Tg(fabp10:EGFP) zebrafish embryos; assay: Zebrafish hepatotoxicity, transgenic Tg(fabp10:EGFP) embryos; format: in vivo, Danio rerio; conditions: 150 µM
Method: (§3) Because liver toxicity presents one of the most common drawbacks of the drugs approved for the human use, the drugs synthesized in this study were examined for the possible hepatotoxicity in vivo. The transgenic Tg(fabp:EGFP) zebrafish embryos exposed at 72 hpf (a stage when the liver is becoming vascularized and performing metabolic transformation of the absorbed compounds) to the synthesized drugs were evaluated for the liver colour (a possible necrosis sign), size, fluorescence and the liver area index ([…]). These are all parameters commonly used for hepatotoxicity evaluation and to follow the effect of applied therapies on the liver function.
Dead embryos were counted and discarded every 24 h.

[7] = test system: Tg(fabp10:EGFP) zebrafish embryos; assay: Zebrafish bio-distribution, transgenic Tg(fabp10:EGFP) embryos; format: in vivo, Danio rerio
Method: as §3
To verify a preferential accumulation of B12-JR1-CBC in the liver, the compound was applied intravenously (parenteral use) to zebrafish embryos.

[8] = test system: blood stage; conditions: cited from earlier work
[9] = Plasmodium falciparum, CQS NF54 strain, asexual erythrocyte stages, triplicate, na = not active at the tested concentration, read-out: NF54 IC50 ± SD
[10] = Plasmodium falciparum, CQR K1 strain, asexual erythrocyte stages, triplicate, read-out: K1 IC50 ± SD
[11] = CQS NF54 strain, asexual erythrocyte stages, triplicate, na = not active at the tested concentration, read-out: NF54 IC50 ± SD
[12] = CQR K1 strain, asexual erythrocyte stages, triplicate, read-out: K1 IC50 ± SD

Cobalamin-2-(4-(4-ethynylphenyl)-1H-1,2,3-triazol-1-yl)-1-(2-(4-fluorophenyl)-3-((4-fluorophenyl)amino)-8,8-dimethyl-5,6-dihydroimidazo[1,2-a]pyrazin-7(8H)-yl)ethan-1-one [Compound B12-SN1]
activity in the sensitive strain (in words) [1]: inactive

C#Cc1ccc(-c2cn(CCNc3ccnc4cc(Cl)ccc34)nn2)cc1 [JR1, 7-chloro-N-(2-(4-(4-ethynylphenyl)-1H-1,2,3-triazol-1-yl)ethyl)quinolin-4-amine]
activity in the sensitive strain (in words) [1]: good activity | IC50 [1, 9]: 0.14 ± 0.01 µM | IC50 [2, 10]: 0.18 ± 0.02 µM | Resistance Index (RI) [2]: 1.3

CCN(CC)CCCC(C)Nc1ccnc2cc(Cl)ccc12 (centres unmarked) [CQ, chloroquine, reference compound]
IC50 ([1]; Plasmodium falciparum, NF54, Erythrocyte, read-out: NF54 IC50 ± SD): 0.013 ± 0.001 µM | IC50 ([2]; Plasmodium falciparum, K1, Erythrocyte, read-out: K1 IC50 ± SD): 0.4 ± 0.04 µM

C#Cc1ccc(-c2cn(CCNc3ccnc4cc(Cl)ccc34)nn2)c(F)c1 [JR3, 7-chloro-N-(2-(4-(4-ethynyl-2-fluorophenyl)-1H-1,2,3-triazol-1-yl)ethyl)quinolin-4-amine]
activity in the sensitive strain (in words) [1]: good activity | IC50 [1, 9]: 0.19 ± 0.02 µM | IC50 [2, 10]: 0.21 ± 0.02 µM | Resistance Index (RI) [2]: 1.1

cobalamin-7-chloro-N-(2-(4-(4-ethynylphenyl)-1H-1,2,3-triazol-1-yl)ethyl)quinolin-4-amine [Compound B12-JR1]
IC50 [1, 11]: 6.27 ± 0.37 µM | IC50 ([1]; Table 2, in vitro data obtained in the cell-based assay, read-out: IC50 NF54): 6.3 µM | IC50 [2, 12]: 9.18 ± 0.85 µM | Resistance Index (RI) [2]: 1.5 | IC50 ([2]; Table 2, in vitro data obtained in the cell-based assay, read-out: IC50 K1): 9.2 µM | activity against the CQR K1 strain relative to CQS (in words) [2]: equally active | IC50 [3]: 70 µM | toxicity against CHO cells (in words) [4]: not to be toxic | toxicity in zebrafish embryos (survival/teratogenicity, in words) [5]: neither toxic | LC50 ([5]; zebrafish model): > 150 µM | liver area index (in words) ([6]; exposure 72–120 hpf): did not affect the liver area index | liver size and fluorescence (in words) ([6]; exposure 72–120 hpf): no changes in the liver size and fluorescence | hepatotoxicity (in words) ([6]; dose 16–24 higher than the one active against Plasmodium strains): not hepatotoxic | organ distribution when applied in the embryo water (in words) ([7]; 150 µM, 106–120 hpf): preferential accumulation of both compounds in the liver | effect on liver development (in words) ([7]; after the exposure period, 150 µM of B12-JR1 and 20 µM B12-JR1-CBC): did not affect the liver development | organ distribution after microinjection into the blood circulation (in words) ([7]; parenteral, microinjected at 106 hpf, analysed at 120 hpf): solely detected in the liver

cobalamin-7-chloro-N-(2-(4-(4-ethynyl-3-fluorophenyl)-1H-1,2,3-triazol-1-yl)ethyl)quinolin-4-amine [Compound B12-JR2]
IC50 [1, 11]: 4.73 ± 0.32 µM | IC50 [2, 12]: 6.02 ± 0.71 µM | Resistance Index (RI) [2]: 1.3 | activity against the CQR K1 strain relative to CQS (in words) [2]: equally active

cyanocobalamin [vitamin B12, reference compound]
toxicity in zebrafish embryos (survival/teratogenicity, in words) [5]: neither toxic

C#Cc1ccc(-c2cn(CC(=O)N3CCn4c(nc(-c5ccc(F)cc5)c4Nc4ccc(F)cc4)C3(C)C)nn2)cc1 [SN1, 2-(4-(4-ethynylphenyl)-1H-1,2,3-triazol-1-yl)-1-(2-(4-fluorophenyl)-3-((4-fluorophenyl)amino)-8,8-dimethyl-5,6-dihydroimidazo[1,2-a]pyrazin-7(8H)-yl)ethan-1-one]
activity in the sensitive strain (in words) [1]: inactive

cobalamin-7-chloro-N-(2-(4-(4-ethynyl-2-fluorophenyl)-1H-1,2,3-triazol-1-yl)ethyl)quinolin-4-amine [Compound B12-JR3]
IC50 [1, 11]: 9.68 ± 0.73 µM | IC50 [2, 12]: > 15 µM | Resistance Index (RI) [2]: >1.6

C#Cc1ccc(-c2cn(CCNc3ccnc4cc(Cl)ccc34)nn2)cc1F [JR2, 7-chloro-N-(2-(4-(4-ethynyl-3-fluorophenyl)-1H-1,2,3-triazol-1-yl)ethyl)quinolin-4-amine]
activity in the sensitive strain (in words) [1]: good activity | IC50 [1, 9]: 0.15 ± 0.01 µM | IC50 [2, 10]: 0.16 ± 0.01 µM | Resistance Index (RI) [2]: 1.1

C/C1=C2/[N-][C@H]([C@H](CC(N)=O)[C@@]2(C)CCC(=O)NC[C@@H](C)OP(=O)([O-])O[C@H]2[C@@H](O)[C@@H](n3cnc4cc(C)c(C)cc43)O[C@@H]2CO)[C@]2(C)N=C(/C(C)=C3N=C(/C=C4N=C1[C@@H](CCC(N)=O)C\4(C)C)[C@@H](CCC(N)=O)[C@]\3(C)CC(N)=O)[C@@H](CCC(N)=O)[C@]2(C)CC(N)=O.[CH2-][C@H]1O[C@@H](n2cnc3c(N)ncnc32)[C@H](O)[C@@H]1O.[Co] [Ado-Cbl, adenosylcobalamin]
rank of antimalarial activity among naturally occurring Cbls (in words) [8]: most active
